# How the values were obtained:
# Type in all cases: in vivo, human
# [1] = system: HCV RNA genotype 1; assay: Case report, Example 3: HCV RNA and liver enzymes after an escalating dose regimen of ibogaine HCl
# Protocol: A person testing positive for HCV RNA genotype 1, administered the following dose regimen of ibogaine HCl. Subject weighed 79 kg. Doses administered were as total doses and not mg/kg. Day 1: 10 mg ibogaine HCl. Day 2: 20 mg ibogaine HCl. Day 3: 20 mg ibogaine HCl. Day 4: 30 mg ibogaine HCl. Day 5: 50 mg ibogaine HCl. Day 6: 75 mg ibogaine HCl. Day 8: 100 mg ibogaine HCl. Day 10: 150 mg ibogaine HCl. Day 14: 300 mg ibogaine HCl. HCV RNA IU/mL was reduced from 780,000 to 644,000. Pretreatment Alkaline Phosphatase was 99, AST was 103 and ALT 195. Post treatment Alkaline Phosphatase 88, AST 89 and ALT 127. An additional 250 mg of ibogaine HCl further reduced HCV RNA IU/mL to 384,000. A final dose within this regimen of 250 mg ibogaine was administered reducing the HCV RNA IU/mL to 154,000.
# [2] = system: HCV; assay: Case report, Example 2: liver enzyme levels in HCV positive after ibogaine HCl; conditions: person, 14 mg/kg self-administered
# Protocol: A person testing positive for HCV and dependent on heroin and methadone self-administered 14 mg/kg of ibogaine HCl. AST was reduced from pretreatment level of 201 to post treatment level of 25. ALT was reduced from pretreatment level of 410 to post treatment level of 50. GGT level was reduced from 155 to 33.
# [3] = system: HCV; assay: Case report, Example 1: HCV positive heroin user given ibogaine HCl; conditions: person, 25 mg/kg
# Protocol: A person diagnosed as HCV positive and using ½ gram of heroin per day was administered 25 mg/kg of ibogaine HCl. Following the administration of ibogaine, heroin use ceased along with swelling of the liver and pain in the area of the liver.
# [4] = system: HCV RNA genotype 3; assay: Case report, Example 4: HCV RNA after ibogaine HCl over 48 hours; conditions: total of 27 mg/kg over 48 hours
# Protocol: A person weighing 160 lbs tested positive HCV RNA genotype 3. RNA IU/mL was 12,600,000. Subject was administered a total of 27 mg/kg of ibogaine HCl over a period of 48 hours in the following regimen: 2 mg/kg, 2 mg/kg, 2 mg/kg, 2 mg/kg, 2 mg/kg, 2 mg/kg, 12 mg/kg, and 3 mg/kg. HCV RNA IU/mL was reduced to 50,100. Prior to ibogaine therapy patient's urine was dark and stool light. Post treatment color of urine and stool were normal.
substance,measurement,setting,value
ibogaine HCl,HCV RNA after an additional dose,"[1]; additional 250 mg after the Day 1-14 regimen, previous level 644,000","384,000 IU/mL"
same,HCV RNA after the final dose,"[1]; final dose of 250 mg within the regimen, previous level 384,000","154,000 IU/mL"
same,HCV RNA after regimen,"[1]; person, 79 kg, genotype 1, total doses 10-300 mg on Days 1-14, reduced from 780,000","644,000 IU/mL"
same,Alkaline Phosphatase post treatment,"[1]; person, genotype 1, Day 1-14 regimen, pretreatment 99",88
same,AST post treatment,"[1]; person, genotype 1, Day 1-14 regimen, pretreatment 103",89
same,ALT post treatment,"[1]; person, genotype 1, Day 1-14 regimen, pretreatment 195",127
same,AST post treatment level,[2]; pretreatment level 201,25
same,ALT post treatment level,[2]; pretreatment level 410,50
same,GGT level post treatment,[2]; reduced from 155,33
same,pain in the area of the liver following administration,[3],ceased
same,swelling of the liver following administration,[3],ceased
same,heroin use following administration,[3]; using ½ gram of heroin per day,ceased
same,HCV RNA after treatment,"[4]; person, 160 lbs, genotype 3, before treatment 12,600,000","50,100 IU/mL"
same,color of urine and stool post treatment,[4]; prior to therapy urine dark and stool light,normal
